{"source": "patent US20210369724A1", "about": "“COMBINATION OF ATR KINASE INHIBITORS WITH 2,3-DIHYDROIMIDAZO[1,2-C]QUINAZOLINE COMPOUNDS” (Bayer Aktiengesellschaft, priority 2018, published 2021)", "key": {"[1]": {"tested_on": "small cell lung cancer cell line NCI-H1048", "assay": "Full matrix combination, 72-hour proliferation assay (CellTiter-Glo)", "type": "cell-based", "experimental": "(§1) Percentage of control (DMSO) in tumor cell growth assay in vitro is used for the assessment of combination effects.\n(§2) The efficacy parameters were the effects in a 72-hour assay. Tumor cells were cultured in 37° C. incubator in their respective growth medium and serum according to the protocol from providers. […] Cell viability was assessed after 72 hour exposure with the Cell Titre-Glo Luminescent Cell Viability Assay (Promega)."}, "[2]": {"tested_on": "Ri-1 B cell lymphoma xenograft", "assay": "Human Ri-1 B cell lymphoma xenograft model", "type": "in vivo, female NOD/SCID mice", "protocol": "(§3) The oral application volume was 10 ml/kg and the intravenous application volume 5 ml/kg. The time interval between two applications per day was 6-7 h. […] The tumor size and the body weight were determined three times weekly. Changes in the body weight compared to the initial body weight at the start of treatment were a measure of treatment-related toxicity (>10%=critical, stoppage in treatment until recovery, >20%=toxic, termination). The tumor area was detected by means of an electronic caliper gauge [length (mm)×width (mm)]. In vivo anti-tumor efficacy is presented as T/C ratio (Treatment/Control) calculated with tumor areas at day of termination of control group by the formula [(tumor area of treatment group at day x)−(tumor area of treatment group at day before first treatment)]/[(tumor area control group at day x)−(tumor area of control group at day before first treatment)]. […] A one-way analysis of variance was performed and differences to the control were compared by a pair-wise comparison procedure (Dunn's method)."}, "[3]": {"tested_on": "SUM-149 breast cancer xenograft", "assay": "Human SUM-149 breast cancer xenograft model", "type": "in vivo, female NMRI nude mice", "protocol": "as §3"}, "LNCaP": {"tested_on": "LNCaP", "assay": "Proliferation assay of prostate cancer cell lines with R1881 (Cell Titre-Glo, 144 h)", "type": "cell-based, human", "settings": "0.3 nM R1881, 144 hour exposure, single compound", "protocol": "(§4) Tumor cells were propagated in a humidified 37° C. incubator in their respective growth medium supplemented with 10% fetal calf serum. […] Cell viability was assessed after 144 hour exposure, except for PC-3 cells where measurement took place after 96 hour exposure, with the Cell Titre-Glo Luminescent Cell Viability Assay (Promega)."}, "Huh-7": {"tested_on": "Huh-7", "assay": "Proliferation assay, mono and fixed-ratio combinations (Cell Titre-Glo, 96 h)", "type": "cell-based, human", "settings": "Huh-7, single compound, 96 hour exposure", "protocol": "(§5) Tumor cells were propagated in a humidified 37° C. incubator in their respective growth medium supplemented 10% fetal calf serum. […] Cell viability was assessed after 96 hour exposure with the Cell Titre-Glo Luminescent Cell Viability Assay (Promega). […] IC50 isobolograms were plotted with the actual concentrations of the two compounds on the x- and y-axis, and the combination index (CI) was calculated according to the median-effect model of Chou-Talalay [Chou T. C."}, "SK-OV-3": {"tested_on": "SK-OV-3", "assay": "Proliferation assay, mono and fixed-ratio combinations (Cell Titre-Glo, 96 h)", "type": "cell-based, human", "settings": "SK-OV-3, single compound, 96 hour exposure", "protocol": "as §5"}, "SNU-449": {"tested_on": "SNU-449", "assay": "Proliferation assay, mono and fixed-ratio combinations (Cell Titre-Glo, 96 h)", "type": "cell-based, human", "settings": "SNU-449, single compound, 96 hour exposure", "protocol": "(§6) Tumor cells were propagated in a humidified 37° C. incubator in their respective growth medium supplemented 10% fetal calf serum. […] Cell viability was assessed after 96 hour exposure with the Cell Titre-Glo Luminescent Cell Viability Assay (Promega)."}, "22Rv1": {"tested_on": "22Rv1", "assay": "Proliferation assay of prostate cancer cell lines with R1881 (Cell Titre-Glo, 144 h)", "type": "cell-based, human", "settings": "22Rv1, 0.1 nM R1881, 144 hour exposure, single compound", "protocol": "as §4"}, "PC-3": {"tested_on": "PC-3", "assay": "Proliferation assay of prostate cancer cell lines with R1881 (Cell Titre-Glo, 96 h)", "type": "cell-based, human", "settings": "PC-3, 0.1 nM R1881, 96 hour exposure, single compound", "protocol": "as §4"}, "C4-2B": {"tested_on": "C4-2B", "assay": "Proliferation assay of prostate cancer cell lines with R1881 (Cell Titre-Glo, 144 h)", "type": "cell-based, human", "settings": "0.3 nM R1881, 144 hour exposure, single compound", "protocol": "as §4"}, "A2780": {"tested_on": "A2780", "assay": "72-hour growth assay of ovary cancer cell lines (Cell Titre-Glo)", "type": "cell-based, human", "settings": "A2780, single compound, 72 hour exposure", "protocol": "(§7) The effects of combinations of the present invention were evaluated using combination index isobologram analysis for in vitro assessment. The efficacy parameters were the effects in a 72-hour growth assay. Tumor cells were propagated in a humidified 37° C. incubator in their respective growth medium (RPMI) supplemented with 10% fetal calf serum. […] Cell viability was assessed after 72 hour exposure with the Cell Titre-Glo Luminescent Cell Viability Assay (Promega). […] IC50 isobolograms were plotted with the actual concentrations of the two compounds on the x- and y-axis, and the combination index (CI) was calculated according to the median-effect model of Chou-Talalay [Chou T. C."}, "IGR-OV1": {"tested_on": "IGR-OV1", "assay": "Proliferation assay, mono and fixed-ratio combinations (Cell Titre-Glo, 96 h)", "type": "cell-based, human", "settings": "IGR-OV1, single compound, 96 hour exposure", "protocol": "as §5"}, "[4]": {"tested_on": "ovarian cancer cell lines SK-OV-3", "assay": "Full matrix combination, 72-hour proliferation assay (CellTiter-Glo)", "type": "cell-based", "settings": "SK-OV-3, single agent Compound A", "experimental": "as §1, §2"}, "[5]": {"tested_on": "pancreatic cancer cell line Capan-1", "assay": "Full matrix combination, 72-hour proliferation assay (CellTiter-Glo)", "type": "cell-based", "settings": "Capan-1, single agent", "experimental": "as §1, §2"}, "SUM-149": {"tested_on": "SUM-149", "assay": "Proliferation assay, mono and fixed-ratio combinations (Cell Titre-Glo, 96 h)", "type": "cell-based, human", "settings": "SUM-149, single compound, 96 hour exposure", "protocol": "as §6"}, "OVCAR-3": {"tested_on": "OVCAR-3", "assay": "72-hour growth assay of ovary cancer cell lines (Cell Titre-Glo)", "type": "cell-based, human", "settings": "OVCAR-3, single compound, 72 hour exposure", "protocol": "as §7"}, "NCI-H460": {"tested_on": "NCI-H460", "assay": "Proliferation assay of cell lines treated with Compound A, Compound B and fixed-ratio combinations (Cell Titre-Glo, 96 h)", "type": "cell-based, human", "settings": "NCI-H460, single compound, 96 hour exposure", "protocol": "as §5"}, "[6]": {"tested_on": "22Rv1 prostate cancer xenograft", "assay": "Human 22Rv1 prostate cancer xenograft model", "type": "in vivo, male Fox Chase SCID mice", "protocol": "as §3"}, "IGR-OV1 cancer xenograft": {"tested_on": "IGR-OV1 cancer xenograft", "assay": "Human IGR-OV1 endometrial cancer xenograft model", "type": "in vivo, female NMRI nude mice", "settings": "IGR-OV1, day 55 after tumor inoculation", "protocol": "as §3"}, "[7]": {"tested_on": "IGR-OV1 endometrial cancer xenograft", "assay": "Human IGR-OV1 endometrial cancer xenograft model", "type": "in vivo, female NMRI nude mice", "settings": "IGR-OV1; 10 mg/kg, i.v., once daily, 2 days on/5 days off, days 1, 2 each week", "protocol": "as §3"}, "HCT 116": {"tested_on": "HCT 116", "assay": "Proliferation assay, mono and fixed-ratio combinations (Cell Titre-Glo, 96 h)", "type": "cell-based, human", "settings": "HCT 116, single compound, 96 hour exposure", "protocol": "as §5"}, "PLC/PRF/5": {"tested_on": "PLC/PRF/5", "assay": "Proliferation assay, mono and fixed-ratio combinations (Cell Titre-Glo, 96 h)", "type": "cell-based, human", "settings": "PLC/PRF/5, single compound, 96 hour exposure", "protocol": "as §6"}, "MDA-MB-468": {"tested_on": "MDA-MB-468", "assay": "Proliferation assay, mono and fixed-ratio combinations (Cell Titre-Glo, 96 h)", "type": "cell-based, human", "settings": "MDA-MB-468, single compound, 96 hour exposure", "protocol": "as §6"}, "VCaP": {"tested_on": "VCaP", "assay": "Proliferation assay of prostate cancer cell lines with R1881 (Cell Titre-Glo, 144 h)", "type": "cell-based, human", "settings": "0.1 nM R1881, 144 hour exposure, single compound", "protocol": "as §4"}, "[8]": {"settings": "Ri-1, 10 mg/kg, i.v., once daily, 2 days on/5 days off, days 1, 2 each week"}, "[9]": {"settings": "SUM-149, 10 mg/kg, i.v., once daily, 2 days on/5 days off, days 1, 2 each week"}}, "note": "Like-named read-outs stand apart in the source and are kept apart here. Marks after values point to notes of the source that are not given here.", "data": [{"smiles": "C[C@@H]1COCCN1c1cc(-c2ccnn2C)c2ccnc(-c3ccn[nH]3)c2n1", "note": "[Compound B, 2-[(3R)-3-methylmorpholin-4-yl]-4-(1-methyl-1H-pyrazol-5-yl)-8-(1H-pyrazol-5-yl)-1,7-naphthyridine]", "values": [{"measurement": "Concentration at which treatment led to tumor killing", "setting": "[1]", "value": 0.253, "unit": "µM"}]}, {"smiles": "COc1c(OCCCN2CCOCC2)ccc2c1N=C(NC(=O)c1cnc(N)nc1)N1CCN=C21.Cl.Cl", "note": "[Compound A, 2-amino-N-[7-methoxy-8-(3-morpholin-4-ylpropoxy)-2,3-dihydroimid-azo[1,2-c]quinazolin-5-yl]pyrimidine-5-carboxamide dihydrochloride]", "values": [{"measurement": "Anti-tumor efficacy of monotherapy compared to control", "setting": "[2]; Ri-1, day 38 after tumor inoculation", "value": "good and statistically significant improved anti-tumor efficacy"}, {"measurement": "Max. weight loss (%)", "setting": "[2]; [8]", "value": "−11", "unit": "%"}, {"measurement": "T/C", "setting": "[2]; [8]", "value": "0.09*"}, {"measurement": "Anti-tumor efficacy of monotherapy compared to control", "setting": "[3]; SUM-149, day 49 after tumor inoculation", "value": "weak to moderate and statistically significant improved anti-tumor efficacy"}, {"measurement": "Max. weight loss (%)", "setting": "[3]; [9]", "value": "−10", "unit": "%"}, {"measurement": "T/C", "setting": "[3]; [9]", "value": "0.58*"}, {"measurement": "IC50", "setting": "LNCaP", "value": 0.008, "unit": "µM"}, {"measurement": "IC50", "setting": "Huh-7", "value": 0.021, "unit": "µM"}, {"measurement": "IC50", "setting": "SK-OV-3", "value": 0.082, "unit": "µM"}, {"measurement": "IC50", "setting": "SNU-449", "value": 0.1, "unit": "µM"}, {"measurement": "IC50", "setting": "22Rv1", "value": 0.05, "unit": "µM"}, {"measurement": "IC50", "setting": "PC-3", "value": 0.1, "unit": "µM"}, {"measurement": "IC50", "setting": "C4-2B", "value": 0.092, "unit": "µM"}, {"measurement": "IC50", "setting": "A2780", "value": 0.0374, "unit": "µM"}, {"measurement": "IC50", "setting": "IGR-OV1", "value": 0.019, "unit": "µM"}, {"measurement": "Concentration at which treatment led to tumor killing", "setting": "[1]; NCI-H1048, single agent Compound A, 72-hour proliferation assay", "value": 0.025, "unit": "µM"}, {"measurement": "Concentration at which single agent showed anti-proliferative effects", "setting": "[4]", "value": 0.025, "unit": "µM"}, {"measurement": "Concentration at which single agent led to moderate anti-proliferation effects", "setting": "[5]", "value": 0.025, "unit": "µM"}, {"measurement": "IC50", "setting": "SUM-149", "value": 0.01, "unit": "µM"}, {"measurement": "IC50", "setting": "OVCAR-3", "value": 0.12, "unit": "µM"}, {"measurement": "IC50", "setting": "NCI-H460", "value": 0.063, "unit": "µM"}, {"measurement": "Anti-tumor efficacy of monotherapy compared to control", "setting": "[6]; 22Rv1, at the day of control group termination", "value": "weak to moderate and statistically significant improved anti-tumor efficacy"}, {"measurement": "Max. weight loss (%)", "setting": "[6]; 22Rv1, 14 mg/kg, i.v., once daily, 2 days on/5 days off, days 1, 2 each week", "value": "−8", "unit": "%"}, {"measurement": "T/C", "setting": "[6]; 22Rv1, 14 mg/kg, i.v., once daily, 2 days on/5 days off, days 1, 2 each week, tumor area at termination of control group", "value": "0.51*"}, {"measurement": "Anti-tumor efficacy of monotherapy compared to control", "setting": "IGR-OV1 cancer xenograft", "value": "good to moderate and statistically significant improved anti-tumor efficacy"}, {"measurement": "Max. weight loss (%)", "setting": "[7]", "value": "−6", "unit": "%"}, {"measurement": "T/C", "setting": "[7]", "value": "0.32*"}, {"measurement": "IC50", "setting": "HCT 116", "value": 0.095, "unit": "µM"}, {"measurement": "IC50", "setting": "PLC/PRF/5", "value": 0.18, "unit": "µM"}, {"measurement": "IC50", "setting": "MDA-MB-468", "value": 0.28, "unit": "µM"}, {"measurement": "IC50", "setting": "VCaP", "value": 0.013, "unit": "µM"}]}]}
